Test results published in patent US20260132132A1, “3A,4,5,6-TETRAHYDRO-1 H-PYRAZOLO[3,4-C]PYRIDIN-7(7AH)-ONE DERIVATIVES AS FACTOR XIIA INHIBITORS” (KALVISTA PHARMACEUTICALS LIMITED, priority 2022, published 2026).

These compounds were tested against T1, Human Factor XIIa (hFXIIa) (Homo sapiens, UniProt P00748) (assay: Determination of Human Factor XIIa (hFXIIa) inhibition, fluorogenic substrate IC50 assay). Settings: fluorogenic substrate H-DPro-Phe-Arg-AFC at Km, 25° C., read-out: Human FXIIa IC50.
T1 construct: purchased Enzyme Research Laboratories
T1 sequence (P00748 373-615 limits assumed): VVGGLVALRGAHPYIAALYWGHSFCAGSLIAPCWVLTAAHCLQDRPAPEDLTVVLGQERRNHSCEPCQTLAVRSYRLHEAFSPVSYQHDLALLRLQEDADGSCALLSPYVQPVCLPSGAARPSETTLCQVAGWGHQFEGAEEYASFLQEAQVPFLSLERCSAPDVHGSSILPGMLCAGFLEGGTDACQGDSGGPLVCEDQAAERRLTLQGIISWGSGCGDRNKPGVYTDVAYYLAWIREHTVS
T1 sequence (P00748 20-372 partner limits assumed): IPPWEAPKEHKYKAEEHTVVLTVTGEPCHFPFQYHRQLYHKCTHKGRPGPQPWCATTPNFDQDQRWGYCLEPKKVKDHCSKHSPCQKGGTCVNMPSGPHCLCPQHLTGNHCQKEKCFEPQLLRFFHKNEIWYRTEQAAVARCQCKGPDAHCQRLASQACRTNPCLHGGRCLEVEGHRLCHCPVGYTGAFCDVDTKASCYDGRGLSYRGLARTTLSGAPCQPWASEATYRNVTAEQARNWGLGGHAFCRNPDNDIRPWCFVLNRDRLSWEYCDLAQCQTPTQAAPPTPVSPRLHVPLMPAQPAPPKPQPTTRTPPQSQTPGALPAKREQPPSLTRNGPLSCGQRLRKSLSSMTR
Assay type: biochemical
Method: Determination of Human Factor XIIa (hFXIIa) inhibition
The Km for the cleavage of the substrate by hFXIIa was determined by standard transformation of the Michaelis-Menten equation, with subsequent inhibition assays performed at substrate Km concentration.
For `O=C(NCc1ccoc1)c1nn(-c2cccc(Cl)c2)c2c1CCN(c1ccc3c(c1)CN(CCO)CC3)C2=O` [Example 1105, 1-(3-chlorophenyl)-N-(furan-3-ylmethyl)-6-(2-(2-hydroxyethyl)-1,2,3,4-tetrahydroisoquinolin-7-yl)-7-oxo-4,5,6,7-tetrahydro-1H-pyrazolo[3,4-c]pyridine-3-carboxamide], the IC50 was 100 to 300 nM. `O=C(NCc1ccccc1)c1nn(-c2cccc(Cl)c2)c2c1CCN(c1ccc3c(c1)CN(CCO)CC3)C2=O` [Example 1107, N-benzyl-1-(3-chlorophenyl)-6-(2-(2-hydroxyethyl)-1,2,3,4-tetrahydroisoquinolin-7-yl)-7-oxo-4,5,6,7-tetrahydro-1H-pyrazolo[3,4-c]pyridine-3-carboxamide] showed an IC50 of 10 to 100 nM. With `O=C(N[C@@H]1CCOC1)c1nn(-c2cccc(Cl)c2)c2c1CCN(c1ccc3c(c1)CN(CCO)CC3)C2=O` [Example 1108, (R)-1-(3-chlorophenyl)-6-(2-(2-hydroxyethyl)-1,2,3,4-tetrahydroisoquinolin-7-yl)-7-oxo-N-(tetrahydrofuran-3-yl)-4,5,6,7-tetrahydro-1H-pyrazolo[3,4-c]pyridine-3-carboxamide] the IC50 was 100 to 300 nM. In the case of `C[C@@H](CO)N1CCc2ccc(N3CCc4c(C(=O)NCC5CC5)nn(-c5cccc(Cl)c5)c4C3=O)cc2C1` [Example 1113, (S)-1-(3-chlorophenyl)-N-(cyclopropylmethyl)-6-(2-(1-hydroxypropan-2-yl)-1,2,3,4-tetrahydroisoquinolin-7-yl)-7-oxo-4,5,6,7-tetrahydro-1H-pyrazolo[3,4-c]pyridine-3-carboxamide], the IC50 is reported as 300 to 1000 nM. Compound `O=C(NCC1CC1)c1nn(-c2cccc(Cl)c2)c2c1CCN(c1ccc3c(c1)CN(C1CCOC1)CC3)C2=O` (stereo not shown) [Example 1115, 1-(3-chlorophenyl)-N-(cyclopropylmethyl)-7-oxo-6-(2-(tetrahydrofuran-3-yl)-1,2,3,4-tetrahydroisoquinolin-7-yl)-4,5,6,7-tetrahydro-1H-pyrazolo[3,4-c]pyridine-3-carboxamide] has an IC50 of 300 to 1000 nM. With `O=C(NCC1CC1)c1nn(-c2cccc(Cl)c2)c2c1CCN(c1ccc3c(c1)CN(CC1CCOC1)CC3)C2=O` (stereo not shown) [Example 1116, 1-(3-chlorophenyl)-N-(cyclopropylmethyl)-7-oxo-6-(2-((tetrahydrofuran-3-yl)methyl)-1,2,3,4-tetrahydroisoquinolin-7-yl)-4,5,6,7-tetrahydro-1H-pyrazolo[3,4-c]pyridine-3-carboxamide] the IC50 was 300 to 1000 nM. Work on `O=C(NCC1CC1)c1nn(-c2cccc(Cl)c2)c2c1CCN(c1ccc3c(c1)CN(C1CCCC1O)CC3)C2=O` (stereo not shown) [Example 1119, 1-(3-chlorophenyl)-N-(cyclopropylmethyl)-6-(2-(2-hydroxycyclopentyl)-1,2,3,4-tetrahydroisoquinolin-7-yl)-7-oxo-4,5,6,7-tetrahydro-1H-pyrazolo[3,4-c]pyridine-3-carboxamide] yielded an IC50 of 300 to 1000 nM. With `O=C1CC[C@H](CN2CCc3ccc(N4CCc5c(C(=O)NCC6CC6)nn(-c6cccc(Cl)c6)c5C4=O)cc3C2)N1` [Example 1120, (R)-1-(3-chlorophenyl)-N-(cyclopropylmethyl)-7-oxo-6-(2-((5-oxopyrrolidin-2-yl)methyl)-1,2,3,4-tetrahydroisoquinolin-7-yl)-4,5,6,7-tetrahydro-1H-pyrazolo[3,4-c]pyridine-3-carboxamide] the IC50 was 300 to 1000 nM. `O=C1CC[C@@H](CN2CCc3ccc(N4CCc5c(C(=O)NCC6CC6)nn(-c6cccc(Cl)c6)c5C4=O)cc3C2)N1` [Example 1124, (S)-1-(3-chlorophenyl)-N-(cyclopropylmethyl)-7-oxo-6-(2-((5-oxopyrrolidin-2-yl)methyl)-1,2,3,4-tetrahydroisoquinolin-7-yl)-4,5,6,7-tetrahydro-1H-pyrazolo[3,4-c]pyridine-3-carboxamide] showed an IC50 of 300 to 1000 nM. `C[C@H](NC(=O)c1nn(-c2cccc(Cl)c2)c2c1CCN(c1ccc3c(c1)CN(CCO)CC3)C2=O)c1cccnc1` [Example 1131, (S)-1-(3-chlorophenyl)-6-(2-(2-hydroxyethyl)-1,2,3,4-tetrahydroisoquinolin-7-yl)-7-oxo-N-(1-(pyridin-3-yl)ethyl)-4,5,6,7-tetrahydro-1H-pyrazolo[3,4-c]pyridine-3-carboxamide] showed an IC50 of 100 to 300 nM. Compound `Cn1cc(CNC(=O)c2nn(-c3cccc(Cl)c3)c3c2CCN(c2ccc4c(c2)CN(CCO)CC4)C3=O)cn1` [Example 1133, 1-(3-chlorophenyl)-6-(2-(2-hydroxyethyl)-1,2,3,4-tetrahydroisoquinolin-7-yl)-N-((1-methyl-1H-pyrazol-4-yl)methyl)-7-oxo-4,5,6,7-tetrahydro-1H-pyrazolo[3,4-c]pyridine-3-carboxamide] has an IC50 of 100 to 300 nM. For `Cc1cccnc1CNC(=O)c1nn(-c2cccc(Cl)c2)c2c1CCN(c1ccc3c(c1)CN(CCO)CC3)C2=O` [Example 1136, 1-(3-chlorophenyl)-6-(2-(2-hydroxyethyl)-1,2,3,4-tetrahydroisoquinolin-7-yl)-N-((3-methylpyridin-2-yl)methyl)-7-oxo-4,5,6,7-tetrahydro-1H-pyrazolo[3,4-c]pyridine-3-carboxamide], the IC50 was 10 to 100 nM. Compound `Cc1cnccc1CNC(=O)c1nn(-c2cccc(Cl)c2)c2c1CCN(c1ccc3c(c1)CN(CCO)CC3)C2=O` [Example 1163, 1-(3-chlorophenyl)-6-(2-(2-hydroxyethyl)-1,2,3,4-tetrahydroisoquinolin-7-yl)-N-((3-methylpyridin-4-yl)methyl)-7-oxo-4,5,6,7-tetrahydro-1H-pyrazolo[3,4-c]pyridine-3-carboxamide] has an IC50 of 10 to 100 nM. For `CC1(C)OCCC1NC(=O)c1nn(-c2cccc(Cl)c2)c2c1CCN(c1cccc(CN3CCCCC3)c1)C2=O` (stereo not shown) [Example 1164, 1-(3-chlorophenyl)-N-(2,2-dimethyltetrahydrofuran-3-yl)-7-oxo-6-(3-(piperidin-1-ylmethyl)phenyl)-4,5,6,7-tetrahydro-1H-pyrazolo[3,4-c]pyridine-3-carboxamide], the IC50 was 300 to 1000 nM. In the case of `Cc1cc(CNC(=O)c2nn(-c3cccc(Cl)c3)c3c2CCN(c2ccc4c(c2)CN(CCO)CC4)C3=O)nn1C` [Example 1166, 1-(3-chlorophenyl)-N-((1,5-dimethyl-1H-pyrazol-3-yl)methyl)-6-(2-(2-hydroxyethyl)-1,2,3,4-tetrahydroisoquinolin-7-yl)-7-oxo-4,5,6,7-tetrahydro-1H-pyrazolo[3,4-c]pyridine-3-carboxamide], the IC50 is reported as 10 to 100 nM. `O=C(NCc1cnoc1)c1nn(-c2cccc(Cl)c2)c2c1CCN(c1ccc3c(c1)CN(CCO)CC3)C2=O` [Example 1167, 1-(3-chlorophenyl)-6-(2-(2-hydroxyethyl)-1,2,3,4-tetrahydroisoquinolin-7-yl)-N-(isoxazol-4-ylmethyl)-7-oxo-4,5,6,7-tetrahydro-1H-pyrazolo[3,4-c]pyridine-3-carboxamide] gave an IC50 of 100 to 300 nM. `Cc1cc(CNC(=O)c2nn(-c3cccc(Cl)c3)c3c2CCN(c2cccc(CN4CCCCC4)c2)C3=O)[nH]n1` [Example 1168, 1-(3-chlorophenyl)-N-((3-methyl-1H-pyrazol-5-yl)methyl)-7-oxo-6-(3-(piperidin-1-ylmethyl)phenyl)-4,5,6,7-tetrahydro-1H-pyrazolo[3,4-c]pyridine-3-carboxamide] showed an IC50 of 10 to 100 nM. With `CCN1CCc2c(COC)cc(N3CCc4c(C(=O)NCC5CC5)nn(-c5cccc(Cl)c5)c4C3=O)cc2C1` [Example 1169, 1-(3-Chlorophenyl)-N-(cyclopropylmethyl)-6-(2-ethyl-5-(methoxymethyl)-1,2,3,4-tetrahydroisoquinolin-7-yl)-7-oxo-4,5,6,7-tetrahydro-1H-pyrazolo[3,4-c]pyridine-3-carboxamide] the IC50 was 100 to 300 nM. In the case of `O=C(NCc1ncccc1Cl)c1nn(-c2cccc(Cl)c2)c2c1CCN(c1ccc3c(c1)CN(CCO)CC3)C2=O` [Example 1170, 1-(3-chlorophenyl)-N-((3-chloropyridin-2-yl)methyl)-6-(2-(2-hydroxyethyl)-1,2,3,4-tetrahydroisoquinolin-7-yl)-7-oxo-4,5,6,7-tetrahydro-1H-pyrazolo[3,4-c]pyridine-3-carboxamide], the IC50 is reported as 10 to 100 nM. `Cc1cc(CNC(=O)c2nn(-c3cccc(Cl)c3)c3c2CCN(c2ccc4c(c2)CN(CCO)CC4)C3=O)ccn1` [Example 1171, 1-(3-chlorophenyl)-6-(2-(2-hydroxyethyl)-1,2,3,4-tetrahydroisoquinolin-7-yl)-N-((2-methylpyridin-4-yl)methyl)-7-oxo-4,5,6,7-tetrahydro-1H-pyrazolo[3,4-c]pyridine-3-carboxamide] gave an IC50 of 10 to 100 nM. `COc1cnccc1CNC(=O)c1nn(-c2cccc(Cl)c2)c2c1CCN(c1ccc3c(c1)CN(CCO)CC3)C2=O` [Example 1172, 1-(3-chlorophenyl)-6-(2-(2-hydroxyethyl)-1,2,3,4-tetrahydroisoquinolin-7-yl)-N-((3-methoxypyridin-4-yl)methyl)-7-oxo-4,5,6,7-tetrahydro-1H-pyrazolo[3,4-c]pyridine-3-carboxamide] showed an IC50 of 10 to 100 nM. Compound `COc1ccc(CNC(=O)c2nn(-c3cccc(Cl)c3)c3c2CCN(c2cccc(CN4CCCCC4)c2)C3=O)cn1` [Example 1173, 1-(3-chlorophenyl)-N-((6-methoxypyridin-3-yl)methyl)-7-oxo-6-(3-(piperidin-1-ylmethyl)phenyl)-4,5,6,7-tetrahydro-1H-pyrazolo[3,4-c]pyridine-3-carboxamide] has an IC50 of 100 to 300 nM.
